Results from PMC7413254 (Nature Communications, 2020).
Like-named read-outs stand apart in the source and are kept apart here.

Experiments:
non-expressing oocytes [1] = assay: cells; format: cell-based, Xenopus laevis; conditions: Xenopus laevis, total [3H]CQ transport; for inhibition at 500 µM: [test solute] = 0.5 mM; for inhibition at 1000 µM: [test solute] = 1 mM; for inhibition at 2000 µM: [test solute] = 2 mM
In short: (§1)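 Oocytes expressing PfCRT isoforms, or non-expressing controls, were incubated 1.5 h at 27.5 °C in ND96 buffer pH 5.5 (96 mM NaCl, 2 mM KCl, 1 mM MgCl2, 1.8 mM CaCl2, 10 mM MES, 10 mM Tris-base), measuring uptake from acidic medium into cytosol. Oocytes were washed ice-cold, SDS-lysed and counted by scintillation.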

PfCRT^3D7 [2] = biological target: T1, PfCRT^3D7 (Plasmodium falciparum, UniProt Q8IBZ9); assay: cell-based; format: cell-based; conditions: total [3H]CQ transport; for inhibition at 500 µM: [test solute] = 0.5 mM; for inhibition at 1000 µM: [test solute] = 1 mM; for inhibition at 2000 µM: [test solute] = 2 mM
T1 sequence (Q8IBZ9 59-398): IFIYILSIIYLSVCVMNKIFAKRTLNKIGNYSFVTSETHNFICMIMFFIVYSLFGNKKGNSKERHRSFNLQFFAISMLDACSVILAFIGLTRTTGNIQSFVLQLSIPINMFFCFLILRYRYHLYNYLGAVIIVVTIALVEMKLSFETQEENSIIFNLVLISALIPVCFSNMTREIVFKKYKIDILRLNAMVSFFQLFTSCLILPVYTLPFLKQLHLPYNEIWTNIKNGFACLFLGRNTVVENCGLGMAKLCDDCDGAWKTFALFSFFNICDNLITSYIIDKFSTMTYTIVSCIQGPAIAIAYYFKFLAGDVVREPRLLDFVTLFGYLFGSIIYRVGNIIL
In short: as §1

PfCRT^Dd2 [3] = biological target: T2, PfCRT^Dd2 (Plasmodium falciparum, UniProt Q9N623, A220S/I356T/K76T/M74I/N326S/N75E/Q271E/R371I); assay: [3H]CQ uptake into Xenopus oocytes, cis-inhibition by unlabelled solute; format: cell-based
T2 sequence (Q9N623 whole entry A220S/I356T/K76T/M74I/N326S/N75E/Q271E/R371I): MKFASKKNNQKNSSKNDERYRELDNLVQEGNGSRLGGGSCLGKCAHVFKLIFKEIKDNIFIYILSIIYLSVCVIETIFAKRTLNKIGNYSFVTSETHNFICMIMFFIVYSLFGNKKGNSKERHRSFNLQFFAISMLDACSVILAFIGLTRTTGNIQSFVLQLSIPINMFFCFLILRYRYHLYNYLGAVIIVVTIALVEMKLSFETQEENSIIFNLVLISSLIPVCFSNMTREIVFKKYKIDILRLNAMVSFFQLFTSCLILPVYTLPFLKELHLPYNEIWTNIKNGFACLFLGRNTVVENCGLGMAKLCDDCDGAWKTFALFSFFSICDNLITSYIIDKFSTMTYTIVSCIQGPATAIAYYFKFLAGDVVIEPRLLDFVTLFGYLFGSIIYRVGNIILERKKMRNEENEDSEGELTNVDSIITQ
In short: as §1

PfCRT^Ecu1110 [4] = biological target: T3, PfCRT^Ecu1110 (Plasmodium falciparum, UniProt Q9N623, A220S/I356L/K76T/N326D); assay: as above; format: cell-based
T3 sequence (Q9N623 whole entry A220S/I356L/K76T/N326D): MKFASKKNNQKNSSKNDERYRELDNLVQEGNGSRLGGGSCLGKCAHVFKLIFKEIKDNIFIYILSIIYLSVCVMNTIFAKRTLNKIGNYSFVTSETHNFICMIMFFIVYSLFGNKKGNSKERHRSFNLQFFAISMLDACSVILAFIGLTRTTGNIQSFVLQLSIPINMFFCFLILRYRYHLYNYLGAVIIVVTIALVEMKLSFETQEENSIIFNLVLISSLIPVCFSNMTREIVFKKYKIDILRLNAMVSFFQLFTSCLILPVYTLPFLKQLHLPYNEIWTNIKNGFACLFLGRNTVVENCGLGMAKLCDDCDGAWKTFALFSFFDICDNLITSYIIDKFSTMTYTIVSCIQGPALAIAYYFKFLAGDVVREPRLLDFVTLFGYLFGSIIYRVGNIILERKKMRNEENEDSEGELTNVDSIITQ
In short: as §1

non-expressing oocytes [5] = format: cell-based, Xenopus laevis; conditions: total [3H]CQ transport; for Uptake of [3H]CQ (% non-expressing oocyte control), trans-stimulation: non-expressing oocytes, normalised to the oocyte type control; for Uptake of [3H]CQ (% PfCRTDd2 control), trans-stimulation, non-expressing oocytes: mean ± SEM, SEM
In short: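 Oocytes (ten per treatment, ≥4 independent frogs/days) were preloaded by injecting VF-6 in 25 nL ND96 at pH 5.0, 5.5, 6.0 or 7.0, or Na^+-free choline buffer, then uptake run 1.5 h, 27.5 °C, ND96 pH 5.5 by default. Internal concentrations assumed ~400 nL oocyte volume.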

PfCRT^3D7 [6] = biological target: T1, PfCRT^3D7; assay: cell-based; format: cell-based
In short: (§2)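 Transport measured in Xenopus oocytes expressing the transporters, 1.5 h at 27.5 °C in ND96 pH 5.5 unless noted. For trans-stimulation, VF-6 injected in 25 nL ND96 at pH 5.0–7.0 or Na^+-free (choline) buffer; intracellular levels based on ~400 nL oocyte volume. Ten oocytes per treatment, ≥4 experiments.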

PfCRT^Dd2 [7] = biological target: T2, PfCRT^Dd2; assay: cell-based; format: cell-based; conditions: […]
In short: as §2

PfCRT^Ecu1110 [8] = biological target: T3, PfCRT^Ecu1110; assay: cell-based; format: cell-based; conditions: […]
In short: as §2

PfNT1 = biological target: T4, PfNT1 (Plasmodium falciparum, UniProt Q8IDM6); assay: cell-based; format: cell-based; conditions: for activity at 5000 µM: total [3H]CQ transport
T4 construct: expressed in transfected cells; host or cells: Xenopus laevis oocytes (stage V-VI), cRNA-injected
T4 sequence (Q8IDM6 whole entry): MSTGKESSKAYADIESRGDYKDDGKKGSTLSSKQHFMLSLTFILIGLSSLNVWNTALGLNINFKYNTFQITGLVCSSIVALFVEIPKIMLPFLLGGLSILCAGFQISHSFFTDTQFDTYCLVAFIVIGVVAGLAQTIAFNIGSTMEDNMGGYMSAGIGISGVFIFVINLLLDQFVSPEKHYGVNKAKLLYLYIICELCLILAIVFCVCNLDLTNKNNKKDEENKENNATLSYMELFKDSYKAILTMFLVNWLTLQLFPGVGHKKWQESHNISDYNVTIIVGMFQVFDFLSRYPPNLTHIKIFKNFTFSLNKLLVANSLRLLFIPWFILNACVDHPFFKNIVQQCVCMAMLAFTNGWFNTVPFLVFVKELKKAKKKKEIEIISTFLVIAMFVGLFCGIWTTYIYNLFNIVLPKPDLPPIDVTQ
In short: as §2

PfCRT [9] = assay: Test of solutes as potential co-substrates for influx of VF-6 via PfCRT into the oocyte; format: cell-based, Plasmodium falciparum; parameters: key: X: Compounds that have been tested as potential co-substrates but are not required for influx of VF-6 via PfCRT into the oocyte; conditions: X = tested
PfCRT [10] = assay: Potential co-substrates tested for influx of VF-6 via PfCRT into the oocyte; format: cell-based, Plasmodium falciparum; parameters: key: X: Compounds that have been tested as potential co-substrates but are not required for influx of VF-6 via PfCRT into the oocyte
[11] = Oocyte, mean ± SEM, SEM, read-out: Uptake of [3H]CQ (% PfCRTDd2 control), cis-inhibition, non-expressing oocytes
[12] = non-expressing oocytes, normalised to the oocyte type control, read-out: Uptake of [3H]CQ (% non-expressing oocyte control), cis-inhibition
[13] = PfCRT3D7 oocytes, normalised to the oocyte type control, read-out: Uptake of [3H]CQ (% PfCRT3D7 control), cis-inhibition
[14] = mean ± SEM, SEM, read-out: Uptake of [3H]CQ (% PfCRTDd2 control), cis-inhibition, PfCRT3D7
[15] = read-out: PfCRT-mediated [3H]CQ transport, cis-inhibition (% PfCRTDd2 control)
[16] = read-out: Uptake of [3H]CQ (% PfCRTDd2 control), cis-inhibition, PfCRTDd2, SEM
[17] = read-out: PfCRT-mediated [3H]CQ transport, cis-inhibition (% PfCRTEcu1110 control)
[18] = read-out: Uptake of [3H]CQ (% PfCRTDd2 control), cis-inhibition, PfCRTEcu1110, SEM
[19] = read-out: Uptake of [3H]CQ (% PfCRTEcu1110 control), cis-inhibition
[20] = read-out: [3H]CQ transport (% PfCRTEcu1110 control), cis-inhibition, PfCRTEcu1110, SEM

`N[C@@H](Cc1c[nH]cn1)C(=O)O` [L-histidine] showed an inhibition at 500 µM (non-expressing oocytes [1]; [11]) of 2.4 ± 0.06%, an inhibition at 1000 µM (non-expressing oocytes [1]; [11]) of 2.8 ± 0.07% and an inhibition at 2000 µM (non-expressing oocytes [1]; [11]) of 2.6 ± 0.05%. For the same compound, the inhibition at 500 µM (non-expressing oocytes [1]; [12]) was 96 ± 4.3%, the inhibition at 1000 µM (non-expressing oocytes [1]; [12]) was 99 ± 3.7% and the inhibition at 2000 µM (non-expressing oocytes [1]; [12]) was 99 ± 4.7%. The inhibition at 500 µM (PfCRT^3D7 [2]; [13]) was 99 ± 5.2%, the inhibition at 1000 µM (PfCRT^3D7 [2]; [13]) was 99 ± 3.6% and the inhibition at 2000 µM (PfCRT^3D7 [2]; [13]) was 101 ± 4.7%. For the same compound, the inhibition at 500 µM (PfCRT^3D7 [2]; [14]) was 3.7 ± 0.02%, the inhibition at 1000 µM (PfCRT^3D7 [2]; [14]) was 2.8 ± 0.02% and the inhibition at 2000 µM (PfCRT^3D7 [2]; [14]) was 2.8 ± 0.03%. The inhibition at 500 µM (PfCRT^Dd2 [3]; [15]) was 96 ± 3.6%, the inhibition at 1000 µM (PfCRT^Dd2 [3]; [15]) was 97 ± 4.1% and the inhibition at 500 µM (PfCRT^Dd2 [3]; [16]) was 98 ± 9.7%. It also gave an inhibition at 1000 µM (PfCRT^Dd2 [3]; [16]) of 99 ± 4.2%, an inhibition at 2000 µM (PfCRT^Dd2 [3]; [16]) of 100 ± 2.2% and an inhibition at 500 µM (PfCRT^Ecu1110 [4]; [17]) of 95 ± 1.5%. For the same compound, the inhibition at 1000 µM (PfCRT^Ecu1110 [4]; [17]) was 94 ± 3.2%, the inhibition at 2000 µM (PfCRT^Ecu1110 [4]; [17]) was 98 ± 2.6% and the inhibition at 500 µM (PfCRT^Ecu1110 [4]; [18]) was 32 ± 1.4%. The inhibition at 1000 µM (PfCRT^Ecu1110 [4]; [18]) was 31 ± 2.1%, the inhibition at 2000 µM (PfCRT^Ecu1110 [4]; [18]) was 33 ± 1% and the inhibition at 500 µM (PfCRT^Ecu1110 [4]; [19]) was 97 ± 5.6%. It also gave an inhibition at 1000 µM (PfCRT^Ecu1110 [4]; [19]) of 96 ± 4.6%, an inhibition at 2000 µM (PfCRT^Ecu1110 [4]; [19]) of 100 ± 8.2% and an inhibition at 500 µM (PfCRT^Ecu1110 [4]; [20]) of 29 ± 0.4%. For the same compound, the inhibition at 1000 µM (PfCRT^Ecu1110 [4]; [20]) was 28 ± 0.2%, the inhibition at 2000 µM (PfCRT^Ecu1110 [4]; [20]) was 30 ± 1.3% and the “Uptake of [3H]CQ (% non-expressing oocyte control), trans-stimulation” value (non-expressing oocytes [5]; [test solute]i = 5 mM) was 99 ± 3.6 % non-expressing oocyte control. For the same compound, the “Uptake of [3H]CQ (% non-expressing oocyte control), trans-stimulation” value (non-expressing oocytes [5]; [test solute]i = 45 mM (30 mM for some solutes due to solubility)) was 100 ± 4.8 % non-expressing oocyte control, the “Uptake of [3H]CQ (% PfCRTDd2 control), trans-stimulation, non-expressing oocytes” value (non-expressing oocytes [5]; [test solute]i = 5 mM (intracellular)) was 3.0 ± 0.06 % PfCRTDd2 control and the “Uptake of [3H]CQ (% PfCRTDd2 control), trans-stimulation, non-expressing oocytes” value (non-expressing oocytes [5]; [test solute]i = 45 mM (intracellular; 30 mM for some solutes due to solubility)) was 2.5 ± 0.01 % PfCRTDd2 control. The activity at 5000 µM (PfCRT^3D7 [6]; PfCRT3D7 oocytes, [test solute]i = 5 mM, total [3H]CQ transport, normalised to the oocyte type control, read-out: Uptake of [3H]CQ (% PfCRT3D7 control), trans-stimulation) was 97 ± 3.6%, the “[3H]CQ transport (% PfCRT3D7 control), trans-stimulation, PfCRT3D7” value (PfCRT^3D7 [6]; SEM) was 0.2 ± 0.01 % PfCRT3D7 control and the activity at 5000 µM (PfCRT^3D7 [6]; [test solute]i = 5 mM (intracellular), PfCRT3D7 oocytes, normalised to oocyte type control, read-out: PfCRT-mediated [3H]CQ transport, trans-stimulation (% PfCRT3D7 control)) was 95 ± 2.9%. For the same compound, the activity at 45000 µM (PfCRT^3D7 [6]; SEM, read-out: Uptake of [3H]CQ (% PfCRTDd2 control), trans-stimulation, PfCRT3D7) was 3.3 ± 0.02%, the activity at 45000 µM (PfCRT^3D7 [6]; read-out: PfCRT-mediated [3H]CQ transport, trans-stimulation (% PfCRT3D7 control)) was 97 ± 2.2% and the activity at 45000 µM (PfCRT^3D7 [6]; read-out: Uptake of [3H]CQ (% PfCRT3D7 control), trans-stimulation) was 99 ± 3.7%. For the same compound, the activity at 5000 µM (PfCRT^3D7 [6]; total [3H]CQ transport, [test solute]i = 5 mM (intracellular), mean ± SEM, SEM, read-out: Uptake of [3H]CQ (% PfCRTDd2 control), trans-stimulation, PfCRT3D7) was 3.2 ± 0.09%, the activity at 5000 µM (PfCRT^Dd2 [7]; pH 5.5, read-out: Uptake of [3H]CQ (% PfCRTDd2 control), trans-stimulation, PfCRTDd2, total [3H]CQ transport, [test solute]i = 5 mM (intracellular), mean ± SEM, SEM) was 101 ± 2.2% and the activity at 5000 µM (PfCRT^Dd2 [7]; pH 5.5, read-out: Uptake of [3H]CQ (% PfCRTDd2 control), trans-stimulation, PfCRTDd2 oocytes, [test solute]i = 5 mM, total [3H]CQ transport, normalised to the oocyte type control) was 101 ± 2.2%. For the same compound, the activity at 45000 µM (PfCRT^Dd2 [7]; pH 5.5, read-out: Uptake of [3H]CQ (% PfCRTDd2 control), trans-stimulation, PfCRTDd2 oocytes, [test solute]i = 45 mM (30 mM for some solutes due to solubility), total [3H]CQ transport, normalised to the oocyte type control) was 97 ± 3.2%, the activity at 5000 µM (PfCRT^Ecu1110 [8]; pH 5.5, read-out: Uptake of [3H]CQ (% PfCRTEcu1110 control), trans-stimulation, PfCRTEcu1110 oocytes, [test solute]i = 5 mM, total [3H]CQ transport, normalised to the oocyte type control) was 100 ± 3.6% and the activity at 45000 µM (PfCRT^Ecu1110 [8]; pH 5.5, read-out: Uptake of [3H]CQ (% PfCRTEcu1110 control), trans-stimulation, PfCRTEcu1110 oocytes, [test solute]i = 45 mM (30 mM for some solutes due to solubility), total [3H]CQ transport, normalised to the oocyte type control) was 99 ± 3%. The activity at 5000 µM (PfCRT^Ecu1110 [8]; read-out: Uptake of [3H]CQ (% PfCRTDd2 control), trans-stimulation, PfCRTEcu1110, total [3H]CQ transport, [test solute]i = 5 mM (intracellular), mean ± SEM, SEM) was 36 ± 1.3%, the activity at 45000 µM (PfCRT^Ecu1110 [8]; read-out: Uptake of [3H]CQ (% PfCRTDd2 control), trans-stimulation, PfCRTEcu1110, total [3H]CQ transport, [test solute]i = 45 mM (intracellular; 30 mM for some solutes due to solubility), mean ± SEM, SEM) was 35 ± 2.5% and the activity at 5000 µM (PfNT1; PfNT1 oocytes, [test solute]i = 5 mM, normalised to the oocyte type control, read-out: Uptake of [3H]CQ (% PfNT1 control), trans-stimulation) was 99 ± 3.3%. The activity at 45000 µM (PfNT1; SEM, read-out: Uptake of [3H]CQ (% PfCRTDd2 control), trans-stimulation, PfNT1) was 2.6 ± 0.04%, the activity at 45000 µM (PfNT1; read-out: Uptake of [3H]CQ (% PfNT1 control), trans-stimulation) was 99 ± 4.2% and the activity at 5000 µM (PfNT1; [test solute]i = 5 mM (intracellular), mean ± SEM, SEM, read-out: Uptake of [3H]CQ (% PfCRTDd2 control), trans-stimulation, PfNT1) was 2.2 ± 0.09%. The “Tested as potential co-substrate but not required for influx of VF-6 via PfCRT into the oocyte” value (PfCRT [9]) was “X” and the “Tested as potential co-substrate but not required for influx of VF-6 via PfCRT into the oocyte” value (PfCRT [10]) was “X”.
